Measurements: article PMC11420776 (RSC Advances, 2024)
“Also recorded” adds a separate entry of the source.

What was measured:
[1] = test system: SF-295 (CNS cancer); test: NCI 60-cell one-dose antiproliferative screen; format: cell-based, human; conditions: one dose 10 μM
[2] = test system: HS 578T (breast cancer); test: NCI 60-cell one-dose antiproliferative screen; format: cell-based, human; conditions: one dose 10 μM
[3] = test system: CCRF-CEM (leukemia); test: NCI 60-cell one-dose antiproliferative screen; format: cell-based, human; conditions: one dose 10 μM
[4] = test system: CAKI-1 (renal cancer); test: NCI 60-cell one-dose antiproliferative screen; format: cell-based, human; conditions: one dose 10 μM
[5] = test system: TK-10 (renal cancer); test: NCI 60-cell one-dose antiproliferative screen; format: cell-based, human; conditions: one dose 10 μM
[6] = test system: MCF7 (breast cancer); test: NCI 60-cell one-dose antiproliferative screen; format: cell-based, human; conditions: one dose 10 μM
[7] = test system: A549/ATCC (NSC lung cancer); test: NCI 60-cell one-dose antiproliferative screen; format: cell-based, human; conditions: one dose 10 μM
[8] = test system: SF-268 (CNS cancer); test: NCI 60-cell one-dose antiproliferative screen; format: cell-based, human; conditions: one dose 10 μM
[9] = test system: OVCAR-3 (ovarian cancer); test: NCI 60-cell one-dose antiproliferative screen; format: cell-based, human; conditions: one dose 10 μM
[10] = test system: HCC-2998 (colon cancer); test: NCI 60-cell one-dose antiproliferative screen; format: cell-based, human; conditions: one dose 10 μM
[11] = test system: SK-MEL-28 (melanoma); test: NCI 60-cell one-dose antiproliferative screen; format: cell-based, human; conditions: one dose 10 μM
[12] = test system: IGROV1 (ovarian cancer); test: NCI 60-cell one-dose antiproliferative screen; format: cell-based, human; conditions: one dose 10 μM
[13] = test system: NCI-H522 (NSC lung cancer); test: NCI 60-cell one-dose antiproliferative screen; format: cell-based, human; conditions: one dose 10 μM
[14] = test system: NCI/ADR-RES (ovarian cancer); test: NCI 60-cell one-dose antiproliferative screen; format: cell-based, human; conditions: one dose 10 μM
[15] = test system: p-PI3K; test: Phosphorylated PI3K ELISA in MCF7 cells; format: cell-based, human; conditions: 4g at its IC50 0.56 μM, compared to untreated MCF7 cells
[16] = test system: MCF7 cells; test: Cell cycle analysis by flow cytometry; format: cell-based, human
[17] = test system: A498 (renal cancer); test: NCI 60-cell one-dose antiproliferative screen; format: cell-based, human; conditions: one dose 10 μM
[18] = target: c-Met kinase (Homo sapiens, UniProt P08581); test: c-Met kinase inhibition assay; format: biochemical
Sequence of c-Met kinase (P08581 25-1390): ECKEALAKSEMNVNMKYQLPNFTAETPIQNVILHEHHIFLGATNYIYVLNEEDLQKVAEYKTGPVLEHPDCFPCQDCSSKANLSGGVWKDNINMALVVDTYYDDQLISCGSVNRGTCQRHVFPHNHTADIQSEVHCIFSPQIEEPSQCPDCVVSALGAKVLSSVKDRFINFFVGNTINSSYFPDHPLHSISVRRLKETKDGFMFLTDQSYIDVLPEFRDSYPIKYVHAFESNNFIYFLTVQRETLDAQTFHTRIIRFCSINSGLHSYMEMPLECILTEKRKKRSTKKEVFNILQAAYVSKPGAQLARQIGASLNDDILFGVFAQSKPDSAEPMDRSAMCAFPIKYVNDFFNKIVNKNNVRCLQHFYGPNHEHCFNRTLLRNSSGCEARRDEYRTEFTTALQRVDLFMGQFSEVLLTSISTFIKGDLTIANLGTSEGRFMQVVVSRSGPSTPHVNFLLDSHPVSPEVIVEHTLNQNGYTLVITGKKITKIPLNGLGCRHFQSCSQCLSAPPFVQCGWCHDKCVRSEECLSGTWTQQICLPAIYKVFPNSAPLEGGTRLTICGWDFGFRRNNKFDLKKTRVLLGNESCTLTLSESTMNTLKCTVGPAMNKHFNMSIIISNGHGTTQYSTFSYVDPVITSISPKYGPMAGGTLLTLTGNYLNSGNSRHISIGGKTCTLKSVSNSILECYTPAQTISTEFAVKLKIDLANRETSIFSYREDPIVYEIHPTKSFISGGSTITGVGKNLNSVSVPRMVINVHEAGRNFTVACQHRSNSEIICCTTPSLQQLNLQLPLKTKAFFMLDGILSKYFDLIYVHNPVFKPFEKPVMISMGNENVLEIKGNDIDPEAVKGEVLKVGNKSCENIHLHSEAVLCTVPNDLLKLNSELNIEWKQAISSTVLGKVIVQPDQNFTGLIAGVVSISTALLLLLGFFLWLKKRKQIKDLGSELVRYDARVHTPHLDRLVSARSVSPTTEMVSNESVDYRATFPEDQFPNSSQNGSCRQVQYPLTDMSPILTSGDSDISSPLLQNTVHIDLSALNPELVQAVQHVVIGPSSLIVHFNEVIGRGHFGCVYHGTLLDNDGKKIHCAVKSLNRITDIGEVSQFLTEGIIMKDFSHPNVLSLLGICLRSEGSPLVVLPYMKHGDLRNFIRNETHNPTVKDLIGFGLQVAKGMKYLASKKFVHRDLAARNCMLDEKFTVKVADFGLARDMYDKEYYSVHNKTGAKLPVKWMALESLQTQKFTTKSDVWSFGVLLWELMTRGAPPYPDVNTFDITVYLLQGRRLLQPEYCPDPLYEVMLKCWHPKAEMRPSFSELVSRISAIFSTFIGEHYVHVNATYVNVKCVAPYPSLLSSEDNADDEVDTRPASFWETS

[19] = test system: MCF7 cells; test: Annexin V/PI dual staining apoptosis assay; format: cell-based, human; conditions: MCF7, 24 h, 4g at IC50 (0.56 μM)
[20] = test system: RXF 393 (renal cancer); test: NCI 60-cell one-dose antiproliferative screen; format: cell-based, human; conditions: one dose 10 μM
[21] = test system: U251 (CNS cancer); test: NCI 60-cell one-dose antiproliferative screen; format: cell-based, human; conditions: one dose 10 μM
[22] = test system: PC-3 (prostate cancer); test: NCI 60-cell one-dose antiproliferative screen; format: cell-based, human; conditions: one dose 10 μM
[23] = test system: UACC-257 (melanoma); test: NCI 60-cell one-dose antiproliferative screen; format: cell-based, human; conditions: one dose 10 μM
[24] = test system: HOP-62 (NSC lung cancer); test: NCI 60-cell one-dose antiproliferative screen; format: cell-based, human; conditions: one dose 10 μM
[25] = test system: NCI-H23 (NSC lung cancer); test: NCI 60-cell one-dose antiproliferative screen; format: cell-based, human; conditions: one dose 10 μM
[26] = test system: SNB-75 (CNS cancer); test: NCI 60-cell one-dose antiproliferative screen; format: cell-based, human; conditions: one dose 10 μM
[27] = test system: RPMI-8226 (leukemia); test: NCI 60-cell one-dose antiproliferative screen; format: cell-based, human; conditions: one dose 10 μM
[28] = test system: NCI-H226 (NSC lung cancer); test: NCI 60-cell one-dose antiproliferative screen; format: cell-based, human; conditions: one dose 10 μM
[29] = test system: DU-145 (prostate cancer); test: NCI 60-cell one-dose antiproliferative screen; format: cell-based, human; conditions: one dose 10 μM
[30] = test system: SW-620 (colon cancer); test: NCI 60-cell one-dose antiproliferative screen; format: cell-based, human; conditions: one dose 10 μM
[31] = test system: HOP-92 (NSC lung cancer); test: NCI 60-cell one-dose antiproliferative screen; format: cell-based, human; conditions: one dose 10 μM
[32] = test system: HCT-116 (colon cancer); test: NCI 60-cell one-dose antiproliferative screen; format: cell-based, human; conditions: one dose 10 μM
[33] = test system: KM12 (colon cancer); test: NCI 60-cell one-dose antiproliferative screen; format: cell-based, human; conditions: one dose 10 μM
[34] = test system: NCI-H460 (NSC lung cancer); test: NCI 60-cell one-dose antiproliferative screen; format: cell-based, human; conditions: one dose 10 μM
[35] = test system: SK-OV-3 (ovarian cancer); test: NCI 60-cell one-dose antiproliferative screen; format: cell-based, human; conditions: one dose 10 μM
[36] = test system: T-47D (breast cancer); test: NCI 60-cell one-dose antiproliferative screen; format: cell-based, human; conditions: one dose 10 μM
[37] = test system: UO-31 (renal cancer); test: NCI 60-cell one-dose antiproliferative screen; format: cell-based, human; conditions: one dose 10 μM
[38] = test system: SNB-19 (CNS cancer); test: NCI 60-cell one-dose antiproliferative screen; format: cell-based, human; conditions: one dose 10 μM
[39] = test system: MDA-MB-468 (breast cancer); test: NCI 60-cell one-dose antiproliferative screen; format: cell-based, human; conditions: one dose 10 μM
[40] = test system: 786-0 (renal cancer); test: NCI 60-cell one-dose antiproliferative screen; format: cell-based, human; conditions: one dose 10 μM
[41] = test system: HCT-15 (colon cancer); test: NCI 60-cell one-dose antiproliferative screen; format: cell-based, human; conditions: one dose 10 μM
[42] = test system: OVCAR-5 (ovarian cancer); test: NCI 60-cell one-dose antiproliferative screen; format: cell-based, human; conditions: one dose 10 μM
[43] = test system: M14 (melanoma); test: NCI 60-cell one-dose antiproliferative screen; format: cell-based, human; conditions: one dose 10 μM
[44] = test system: NCI-H322M (NSC lung cancer); test: NCI 60-cell one-dose antiproliferative screen; format: cell-based, human; conditions: one dose 10 μM
[45] = test system: EKVX (NSC lung cancer); test: NCI 60-cell one-dose antiproliferative screen; format: cell-based, human; conditions: one dose 10 μM
[46] = test system: 60 human tumor cell lines; test: NCI 60-cell one-dose antiproliferative screen, whole panel; format: cell-based; conditions: Homo sapiens, 60 cell, read-out: Mean inhibition (mean GI%)
[47] = test system: SN12C (renal cancer); test: NCI 60-cell one-dose antiproliferative screen; format: cell-based, human; conditions: one dose 10 μM
[48] = MCF7, 4g at IC50 (0.56 μM), 24 h
[49] = MCF7, 4g at IC50 (0.56 μM), relative to DMSO control

In the case of `COc1ccc(-c2nnc3ccc(NN=Cc4ccc(O)cc4)nn23)cc1` [Compound 4g, 4-((2-(3-(4-Methoxyphenyl)-[1,2,4]triazolo[4,3-b]pyridazin-6-yl)hydrazono)methyl)phenol], the GI% [1] is reported as 56.41%, the GI% [2] is reported as 53.18% and the GI% [3] is reported as 85.88%. It also gave a GI% [4] of 78.54%, a GI% [5] of 61.05% and a GI% [6] of 86.77%. It also gave a GI% [7] of 41.49%, a GI% [8] of 64.19% and a GI% [9] of 62.40%. The GI% [10] was 85.07%, the GI% [11] was 30.86% and the GI% [12] was 60.66%. For the same compound, the GI% [13] was 53.35%, the GI% [14] was 73.98% and the “inhibition of PI3K phosphorylation” value [15] was 55.5%. For the same compound, the “%G0-G1” value [16, 48] was 52.94%, the “%G2/M” value [16, 48] was 4.13% and the “drop in the cell population at G0/G1 phase” value [16, 49] was 10.48%. For the same compound, the “drop in the cell population at G2/M phase” value [16, 49] was 46.84%, the “increase in the proportion of cells in the S phase” value ([16]; MCF7, 4g at IC50 (0.56 μM), versus control (DMSO)) was 1.29 fold and the “cell cycle arrest phase” value ([16]; MCF7 cells) was “arrest in the S stage of the cell cycle; also recorded: arrest in the proliferation of MCF7 cells in the S phase; also recorded: ceased the proliferation of MCF-7 cancer cells in the S phase”. The GI% [17] was “— (— GI% is below 15%)”, the IC50 [18] was 163 ± 10 nM and the “Apoptosis Early” value [19] was 25.16%. The “Apoptosis Late” value [19] was 18.13%, the Necrosis [19] was 5.27% and the “increase in the percentage of total apoptosis” value ([19]; compared to the control) was 29.61 fold. For the same compound, the GI% [20] was 57.34%, the GI% [21] was 32.41% and the GI% [22] was 59.52%. For the same compound, the GI% [23] was 17.70%, the GI% [24] was “— (— GI% is below 15%)” and the GI% [25] was 67.47%. The GI% [26] was 46.38%, the GI% [27] was 86.88% and the GI% [28] was 22.48%. It also gave a GI% [29] of 48.11%, a GI% [30] of 32.85% and a GI% [31] of 68.67%. It also gave a GI% [32] of 72.71%, a GI% [33] of 71.51% and a GI% [34] of 55.73%. The GI% [35] was “— (— GI% is below 15%)”, the GI% [36] was 54.64% and the GI% [37] was 69.74%. For the same compound, the GI% [38] was 32.46%, the GI% [39] was 51.76% and the GI% [40] was 77.10%. The GI% [41] was 73.30%, the GI% [42] was “— (— GI% is below 15%)” and the GI% [43] was 43.64%. It also gave a GI% [44] of 38.06%, a GI% [45] of 62.20% and an inhibition at 10 µM [46] of 55.8%. The GI% [47] was 57.71%.
